# Test results reported in PMC4383706 (Cancer prevention research (Philadelphia, Pa.), 2015).
# “Also recorded” adds a separate entry of the source. Where two headings read alike, the source gives them in different places.
# Assays:
# [1] = system: OH-BBN-induced urinary bladder cancers; conditions: prior studies; at their HEDs (aspirin at doses in substantial excess of its HED), even when initiated after pre-invasive microscopic cancers; cited from earlier work
# [2] = system: OH-BBN-induced urinary bladder cancers; experiment: OH-BBN-induced urinary bladder cancer model; assay type: in vivo, Female Fischer-344 rats; conditions: for number of rats with large urinary bladder cancers (>200 mg) at end of study: vehicle 24/25; for final weights of urinary bladder plus cancers vs vehicle control: end of study, Supplementary Fig. 1A/1B
# [3] = NPX 40 mg/Kg BW gavage; for CI: serum
# [4] = system: OH-BBN-induced urinary bladder cancers; conditions: NPX limited treatment vs vehicle; Supplementary Fig. 3
# [5] = humans; cited from earlier work
# urinary bladder cancer = conditions: dogs; cited from earlier work
# colon adenomas = conditions: cited from earlier work
# [6] = system: colon, bladder, skin tumors; conditions: doses which correspond to human doses of 100 or 325 mg; cited from earlier work
# [7] = multiple clinical studies; cited from earlier work
# [8] = rats, omeprazole levels at the human equivalent dose; cited from earlier work
# [9] = low to moderate doses of aspirin
compound,measurement,setting,value
COc1ccc2cc([C@H](C)C(=O)OCCCCO[N+](=O)[O-])ccc2c1 [NO-NPX],blocking the development of large palpable cancers,[1],effective
"COc1ccc2cc([C@H](C)C(=O)O)ccc2c1 [NPX, naproxen]",number of rats with large urinary bladder cancers (>200 mg) at end of study,[2]; 1 week daily NPX (40 mg/kg BW/day)/1week vehicle (Group B),6/29
same,number of rats with large urinary bladder cancers (>200 mg) at end of study,[2]; 3 week daily NPX (40 mg/kg BW/day)/3 week vehicle (Group C),5/28
same,"rats with palpable cancers, protocol C","[2]; 3 weeks daily NPX/3 week vehicle, vehicle 96%, P<0.01",19%
same,inhibition of urinary bladder cancer formation,"[2]; NPX by gavage daily, 1 week on/1 week off, or 3 weeks on/3 weeks off, P<.005",73–82%
same,"rats with palpable cancers, protocol A","[2]; NPX daily, beginning 2 weeks after last OH-BBN, vehicle 96%, P<0.01",27%
same,reduction of urinary bladder cancer incidence,"[2]; NPX daily, P<0.01",approximately 75%
same,final weights of urinary bladder plus cancers vs vehicle control,[2],final weights were higher in vehicle controls than in any of the three NPX treatment groups; also recorded: significantly different from control
same,time for which serum levels greater than 100 uM were achieved following gavage,[3],less than 6 hours
same,CI,[3]; 14 Day (14 consecutive days),.049 L/h/kg
same,CI,[3]; 24 hour (1 day) time point,.058 L/h/kg
same,levels of phosphorylated AKT (S473),[4],"slightly, but significantly, decrease"
same,phosphorylation of PI3K,[4],"slightly, but significantly, decrease"
same,blocking the development of large palpable cancers,[1],effective
same,accumulation in urine,[5],preferentially accumulates in urine
CN1C(C(=O)Nc2ccccn2)=C(O)c2ccccc2S1(=O)=O [Piroxicam],therapeutic efficacy in urinary bladder cancer,urinary bladder cancer,has shown therapeutic efficacy
CC(=O)Oc1ccccc1C(=O)O [aspirin],blocking the development of large palpable cancers,[1],effective
same,decrease in advanced adenomas,colon adenomas; [9],35–40%
same,decrease in total adenomas,colon adenomas; [9],20–25%
same,preventive efficacy in animal models,[6],routinely ineffective
Cc1ccc(-c2cc(C(F)(F)F)nn2-c2ccc(S(N)(=O)=O)cc2)cc1 [celecoxib],blocking the development of large palpable cancers,[1],effective
same,decrease in advanced adenomas,colon adenomas; clinical trial,55–65%
same,decrease in total colon adenomas,colon adenomas; clinical trial,~45%
COc1ccc2[nH]c([S+]([O-])Cc3ncc(C)c(OC)c3C)nc2c1 (stereo not shown) [omeprazole],final weights of urinary bladder plus cancers vs vehicle control,[2],larger in size than tumors in rats given the vehicle alone
same,decrease of GI bleeding,[7],50–75%
same,acidity of the stomach,[8],decreased the acidity of the stomach
CN(CCOc1ccc(CC2SC(=O)NC2=O)cc1)c1ccccn1 (stereo not shown) [rosiglitazone],tumor latency,"[2]; rosiglitazone 10 mg/kg BW/day by gavage, 10 rats",greatly decreased tumor latency
CC1=C(CC(=O)O)c2cc(F)ccc2/C1=C\c1ccc([S+](C)[O-])cc1 (stereo not shown) [sulindac],blocking the development of large palpable cancers,[1],effective
